Reference: article PMC7655065, “Effect of 3-subsitution of quinolinehydroxamic acids on selectivity of histone deacetylase isoforms” (Journal of Enzyme Inhibition and Medicinal Chemistry, 2020)

Assays:
A549 cells = test: Sulforhodamine B antiproliferative assay, A549; format: cell-based; conditions: Homo sapiens; A549 cells, SRB, 48 h; values > 10 μM estimated from best curve fitting; read-out: Antiproliferative activity IC50, A549
Protocol: (§1) All human cancer cells were maintained in RPMI 1640 medium supplemented with 10% FBS and penicillin (100 units/ml)/streptomycin (100 µg/ml)/amphotericin B (0.25 µg/ml). All cells were maintained in humidified air containing 5% CO2 at 37 °C and cultured every 2–3 days. […]
(§2) Cells were seeded at the density of 5000 cells/well into 96-plate overnight. Basal cells were fixed with 10% trichloroacetic acid (TCA) to represent the cell population at the time of compound addition (T0). After additional incubation of DMSO (C) or different doses of test compounds (Tx) for 48 h, cells were fixed with 10% TCA and stained with SRB at 0.4% (w/v) in 1% AcOH. Unbound SRB was washed out using 1% AcOH and SRB bound cells were solubilised with 10 mM Trizma base. The absorbance was read at a wavelength of 515 nm. The 50% growth inhibition (GI50) was calculated by 100 − [(Tx – T0)/(C – T0)] × 100.

HCT116 cells = test: Sulforhodamine B antiproliferative assay, HCT116; format: cell-based; conditions: Homo sapiens, HCT-116, SRB, 48 h, values > 10 μM estimated from best curve fitting
Protocol: as §1, §2

HDAC1 = biological target: T1, HDAC1 (Homo sapiens, UniProt Q13547); test: HDAC biochemical assay (Fluor-de-Lys), HDAC1; conditions: for Selectivity ratio of HDAC1 over HDAC6: IC50 HDAC1 / IC50 HDAC6; for IC50: human recombinant HDAC1, values > 10 μM estimated from best curve fitting
T1 construct: EurofinPanlabs (Taipei, Taiwan)
T1 sequence (Q13547 whole entry): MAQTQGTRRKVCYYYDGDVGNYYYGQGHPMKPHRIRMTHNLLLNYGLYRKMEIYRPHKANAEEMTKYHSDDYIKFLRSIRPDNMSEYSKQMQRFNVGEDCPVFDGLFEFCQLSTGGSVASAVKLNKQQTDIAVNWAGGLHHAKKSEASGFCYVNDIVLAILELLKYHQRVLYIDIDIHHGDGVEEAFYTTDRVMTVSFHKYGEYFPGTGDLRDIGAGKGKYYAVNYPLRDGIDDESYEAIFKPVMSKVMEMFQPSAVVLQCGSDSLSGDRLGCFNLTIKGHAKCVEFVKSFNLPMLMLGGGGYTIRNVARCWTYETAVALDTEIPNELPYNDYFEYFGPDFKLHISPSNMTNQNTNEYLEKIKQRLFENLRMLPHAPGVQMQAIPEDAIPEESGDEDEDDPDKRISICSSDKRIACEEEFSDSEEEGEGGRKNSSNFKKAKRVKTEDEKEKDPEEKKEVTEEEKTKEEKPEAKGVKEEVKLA

HDAC2 = biological target: T2, HDAC2 (Homo sapiens, UniProt Q92769); test: HDAC biochemical assay (Fluor-de-Lys), HDAC2; conditions: for Selectivity ratio of HDAC2 over HDAC6: IC50 HDAC2 / IC50 HDAC6; for IC50: human recombinant HDAC2, dash = no inhibition or activity that could not be fitted to an IC50 curve
T2 construct: EurofinPanlabs (Taipei, Taiwan)
T2 sequence (Q92769 whole entry): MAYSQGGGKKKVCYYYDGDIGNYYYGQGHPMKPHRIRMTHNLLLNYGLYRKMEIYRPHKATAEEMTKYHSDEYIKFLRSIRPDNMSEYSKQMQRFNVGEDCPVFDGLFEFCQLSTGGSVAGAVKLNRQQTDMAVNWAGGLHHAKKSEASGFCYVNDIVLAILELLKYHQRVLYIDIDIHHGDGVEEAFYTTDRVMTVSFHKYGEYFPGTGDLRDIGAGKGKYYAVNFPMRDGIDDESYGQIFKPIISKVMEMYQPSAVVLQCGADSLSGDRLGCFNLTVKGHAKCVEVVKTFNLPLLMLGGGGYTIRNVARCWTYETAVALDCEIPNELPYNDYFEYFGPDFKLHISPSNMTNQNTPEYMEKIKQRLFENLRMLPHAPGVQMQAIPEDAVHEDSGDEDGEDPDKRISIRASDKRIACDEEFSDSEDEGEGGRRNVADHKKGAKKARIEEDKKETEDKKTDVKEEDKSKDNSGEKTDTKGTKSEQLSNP

HDAC6 = biological target: T3, HDAC6 (Homo sapiens, UniProt Q9UBN7); test: HDAC biochemical assay (Fluor-de-Lys), HDAC6; conditions: human recombinant HDAC6
T3 construct: EurofinPanlabs (Taipei, Taiwan)
T3 sequence (Q9UBN7 1-1215): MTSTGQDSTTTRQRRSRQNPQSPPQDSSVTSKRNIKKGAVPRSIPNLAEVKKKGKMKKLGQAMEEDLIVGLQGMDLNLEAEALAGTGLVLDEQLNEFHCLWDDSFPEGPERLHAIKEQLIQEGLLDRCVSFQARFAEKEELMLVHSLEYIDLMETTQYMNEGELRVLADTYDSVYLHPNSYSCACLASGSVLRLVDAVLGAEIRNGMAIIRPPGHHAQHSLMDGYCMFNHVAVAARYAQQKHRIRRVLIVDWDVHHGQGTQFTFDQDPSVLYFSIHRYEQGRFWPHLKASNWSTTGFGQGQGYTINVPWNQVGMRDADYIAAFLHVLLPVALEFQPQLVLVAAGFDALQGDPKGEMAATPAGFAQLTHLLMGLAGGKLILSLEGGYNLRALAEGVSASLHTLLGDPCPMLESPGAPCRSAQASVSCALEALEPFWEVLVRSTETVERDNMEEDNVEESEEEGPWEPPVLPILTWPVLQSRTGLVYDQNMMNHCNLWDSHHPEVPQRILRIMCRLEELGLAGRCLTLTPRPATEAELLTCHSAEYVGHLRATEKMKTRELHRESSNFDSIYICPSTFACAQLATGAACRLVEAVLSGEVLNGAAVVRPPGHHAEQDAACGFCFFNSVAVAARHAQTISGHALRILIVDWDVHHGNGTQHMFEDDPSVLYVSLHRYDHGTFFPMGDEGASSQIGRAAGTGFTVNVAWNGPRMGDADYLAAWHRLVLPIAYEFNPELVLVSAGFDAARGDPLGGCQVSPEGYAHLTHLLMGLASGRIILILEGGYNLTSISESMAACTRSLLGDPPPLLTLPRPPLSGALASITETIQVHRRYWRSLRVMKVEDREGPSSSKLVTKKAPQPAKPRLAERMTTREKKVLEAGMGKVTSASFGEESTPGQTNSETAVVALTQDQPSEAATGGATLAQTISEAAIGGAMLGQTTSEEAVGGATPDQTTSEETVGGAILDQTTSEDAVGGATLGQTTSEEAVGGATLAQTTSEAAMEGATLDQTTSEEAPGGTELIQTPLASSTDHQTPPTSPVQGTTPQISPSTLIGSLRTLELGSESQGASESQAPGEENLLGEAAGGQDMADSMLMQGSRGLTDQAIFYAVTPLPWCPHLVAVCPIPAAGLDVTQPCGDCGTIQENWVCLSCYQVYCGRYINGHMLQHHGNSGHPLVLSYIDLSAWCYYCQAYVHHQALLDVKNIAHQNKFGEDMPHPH

HDAC8 = biological target: T4, HDAC8 (Homo sapiens, UniProt Q9BY41); test: HDAC biochemical assay (Fluor-de-Lys), HDAC8; conditions: for Selectivity ratio of HDAC8 over HDAC6: IC50 HDAC8 / IC50 HDAC6; for IC50: human recombinant HDAC8
T4 construct: EurofinPanlabs (Taipei, Taiwan)
T4 sequence (Q9BY41 1-377): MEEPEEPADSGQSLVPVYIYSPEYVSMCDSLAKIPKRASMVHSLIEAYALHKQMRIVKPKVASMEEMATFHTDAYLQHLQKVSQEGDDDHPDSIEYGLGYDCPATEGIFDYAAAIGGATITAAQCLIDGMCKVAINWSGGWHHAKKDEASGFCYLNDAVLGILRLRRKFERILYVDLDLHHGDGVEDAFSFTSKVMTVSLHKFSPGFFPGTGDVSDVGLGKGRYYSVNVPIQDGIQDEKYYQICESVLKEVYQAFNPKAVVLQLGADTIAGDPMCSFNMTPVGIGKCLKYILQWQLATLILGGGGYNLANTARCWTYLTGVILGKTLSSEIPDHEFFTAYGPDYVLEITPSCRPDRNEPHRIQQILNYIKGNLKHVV

| Structure (SMILES) | IC50 (A549 cells) [µM] | IC50 (HCT116 cells) [µM] | Selectivity ratio of HDAC1 over HDAC6 (HDAC1) | IC50 (HDAC1) [µM] | Selectivity ratio of HDAC2 over HDAC6 (HDAC2) | IC50 (HDAC2) [µM] | IC50 (HDAC6) [µM] | Selectivity ratio of HDAC8 over HDAC6 (HDAC8) | IC50 (HDAC8) [µM] |
| --- | --- | --- | --- | --- | --- | --- | --- | --- | --- |
| N#Cc1ccccc1-c1cnc2c(NCc3ccc(C(=O)NO)cc3)cccc2c1 [Compound 21, 4-(((3–(2-Cyanophenyl)quinolin-8-yl)amino)methyl)-N-hydroxybenzamide amide] | 8.65 ± 2.35 | 6 ± 1.56 | – | – | – | – | – | – | – |
| N#Cc1cccc(-c2cnc3c(NCc4ccc(C(=O)NO)cc4)cccc3c2)c1 [Compound 22, 4-(((3–(3-Cyanophenyl)quinolin-8-yl)amino)methyl)-N-hydroxybenzamide] | 2.04 ± 0.35 | 3.18 ± 0.16 | (252) | 9.11 | (55) | 1.98 | 0.0362 | (106) | 3.83 |
| O=C(NO)c1ccc(CNc2cccc3cc(I)cnc23)cc1 [Compound 16, N-Hydroxy-4-[(3-iodo-quinolin-8-ylamino)-methyl]-benzamide] | 3.41 ± 0.9 | 4.79 ± 0.47 | – | – | – | – | – | – | – |
| COc1ccc(-c2cnc3c(NCc4ccc(C(=O)NO)cc4)cccc3c2)cc1 [Compound 20, N-Hydroxy-4-(((3–(4-methoxyphenyl)quinolin-8-yl)amino)methyl)benzamide] | 9.1 ± 0.3 | > 10 | – | – | – | – | – | – | – |
| O=C(NO)c1ccc(CNc2cccc3cc(-c4ccsc4)cnc23)cc1 [Compound 29, N-Hydroxy-4-(((3-(thiophen-3-yl)quinolin-8-yl)amino)methyl)benzamide] | 3.84 ± 0.4 | 3.59 ± 0.51 | (199) | 6 | (117) | 3.52 | 0.0301 | (164) | 4.93 |
| COc1ccccc1-c1cnc2c(NCc3ccc(C(=O)NO)cc3)cccc2c1 [Compound 19, N-Hydroxy-4-(((3–(2-methoxyphenyl)quinolin-8-yl)amino)methyl)benzamide] | > 10 | 7.19 ± 0.77 | – | – | – | – | – | – | – |
| O=C(NO)c1ccc(CNc2cccc3cc(-c4cccc([N+](=O)[O-])c4)cnc23)cc1 [Compound 24, N-Hydroxy-4-(((3–(3-nitrophenyl)quinolin-8-yl)amino)methyl)benzamide] | 4.05 ± 0.42 | 2.88 ± 0.21 | – | – | – | – | – | – | – |
